From ChEMBL document CHEMBL1201862, “PubChem BioAssay data set” (2004)
Calls of active or inactive are those of the source.

Columns and labels:
[1] = target: Large T antigen (Simian virus 40, UniProt P03070); assay type: functional, Betapolyomavirus macacae;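 also: Confirmatory-stage PubChem screen for compounds that inhibit SV40 T antigen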
[2] = target: T1, Sentrin-specific protease 7 (Homo sapiens, UniProt Q9BQF6); assay type: functional;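 also: Luminescence-based dose-response confirmation of ultra-high-throughput screening hits, measuring inhibition of SENP7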
T1 sequence (Q9BQF6 whole entry): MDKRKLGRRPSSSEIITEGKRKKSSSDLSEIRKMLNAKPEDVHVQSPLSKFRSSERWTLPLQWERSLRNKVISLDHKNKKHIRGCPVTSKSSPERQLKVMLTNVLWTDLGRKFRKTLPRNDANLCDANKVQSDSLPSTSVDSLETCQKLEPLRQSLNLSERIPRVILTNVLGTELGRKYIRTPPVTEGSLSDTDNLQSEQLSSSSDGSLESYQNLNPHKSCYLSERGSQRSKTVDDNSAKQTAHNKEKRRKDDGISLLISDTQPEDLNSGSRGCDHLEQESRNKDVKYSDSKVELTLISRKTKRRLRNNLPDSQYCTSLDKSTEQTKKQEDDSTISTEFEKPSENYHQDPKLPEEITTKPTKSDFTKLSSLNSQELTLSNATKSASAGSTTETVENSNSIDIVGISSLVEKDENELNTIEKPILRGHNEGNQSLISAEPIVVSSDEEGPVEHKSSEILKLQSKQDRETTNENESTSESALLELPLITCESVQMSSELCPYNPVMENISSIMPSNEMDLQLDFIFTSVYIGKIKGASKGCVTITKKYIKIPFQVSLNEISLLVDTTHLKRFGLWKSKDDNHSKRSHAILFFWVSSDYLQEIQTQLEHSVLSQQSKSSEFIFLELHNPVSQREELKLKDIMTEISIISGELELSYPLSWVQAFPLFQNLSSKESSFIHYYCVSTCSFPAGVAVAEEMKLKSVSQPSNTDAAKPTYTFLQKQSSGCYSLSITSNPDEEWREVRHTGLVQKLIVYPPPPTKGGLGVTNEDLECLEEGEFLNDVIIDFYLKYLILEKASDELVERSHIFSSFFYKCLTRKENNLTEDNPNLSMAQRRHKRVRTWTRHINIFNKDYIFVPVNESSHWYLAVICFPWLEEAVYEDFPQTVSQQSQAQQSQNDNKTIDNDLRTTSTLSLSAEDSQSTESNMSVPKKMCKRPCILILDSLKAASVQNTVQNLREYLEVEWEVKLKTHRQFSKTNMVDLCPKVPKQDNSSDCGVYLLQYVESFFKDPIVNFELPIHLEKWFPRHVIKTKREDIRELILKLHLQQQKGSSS

[3] = target: 5-hydroxytryptamine receptor 5A (Homo sapiens, UniProt P47898); assay: Counterscreen for agonists of OPRM1-OPRD1 heterodimerization: luminescence-based cell-based high throughput dose response assay to identify agonists of 5-hydroxytryptamine (serotonin) 5A receptor (HTR5A). [Related pubchem assays (depositor defined):AID504326, AID504355, AID504692, AID504904, AID504905]; assay type: functional
5-hydroxytryptamine receptor 5A, sequence (P47898 whole entry): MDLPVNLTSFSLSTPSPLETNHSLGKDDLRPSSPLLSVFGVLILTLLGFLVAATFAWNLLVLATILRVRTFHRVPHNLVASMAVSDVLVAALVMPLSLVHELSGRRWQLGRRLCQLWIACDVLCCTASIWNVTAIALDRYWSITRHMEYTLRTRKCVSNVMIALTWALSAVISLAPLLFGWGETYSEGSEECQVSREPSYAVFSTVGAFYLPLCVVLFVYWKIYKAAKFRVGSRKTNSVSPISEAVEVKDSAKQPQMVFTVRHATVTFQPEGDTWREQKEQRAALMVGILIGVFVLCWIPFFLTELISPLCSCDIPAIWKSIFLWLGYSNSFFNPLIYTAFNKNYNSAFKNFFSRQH

[4] = inhibitors of firefly luciferase expression or activity, dose response, H4 neuroglioma cells, luminescence (AID 1990); assay type: functional, cell-based
[5] = target: T2, Streptokinase A (Streptococcus pyogenes serotype M1, UniProt P10520); assay: S. pyogenes streptokinase expression inhibitors, potency, dose response, plasminogen activation absorbance, OD405 (AID 1914); assay type: functional, Streptococcus pyogenes M1 GAS;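 also: secreted streptokinase activity via plasminogen activation per viability signal from cell pellet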
T2 sequence (P10520 whole entry): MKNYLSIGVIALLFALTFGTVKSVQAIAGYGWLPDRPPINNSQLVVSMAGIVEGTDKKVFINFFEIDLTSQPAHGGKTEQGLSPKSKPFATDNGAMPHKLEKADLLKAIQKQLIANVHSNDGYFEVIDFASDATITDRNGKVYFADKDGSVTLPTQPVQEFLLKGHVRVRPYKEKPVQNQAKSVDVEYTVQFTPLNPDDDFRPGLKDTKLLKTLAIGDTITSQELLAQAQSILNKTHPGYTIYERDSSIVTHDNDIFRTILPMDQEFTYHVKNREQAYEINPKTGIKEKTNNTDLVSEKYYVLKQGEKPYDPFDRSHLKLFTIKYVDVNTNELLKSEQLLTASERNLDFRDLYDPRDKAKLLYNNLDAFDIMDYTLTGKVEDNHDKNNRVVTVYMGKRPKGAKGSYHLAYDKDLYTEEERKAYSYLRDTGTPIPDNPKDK

[6] = system: BJ; assay: cells; assay type: functional, cell-based; conditions: Homo sapiens
[7] = target: Mothers against decapentaplegic homolog 3 (Homo sapiens, UniProt P84022); assay: SMAD3 transcription factor inhibitors, dose response (AID 715); assay type: functional
Mothers against decapentaplegic homolog 3, sequence (P84022 whole entry): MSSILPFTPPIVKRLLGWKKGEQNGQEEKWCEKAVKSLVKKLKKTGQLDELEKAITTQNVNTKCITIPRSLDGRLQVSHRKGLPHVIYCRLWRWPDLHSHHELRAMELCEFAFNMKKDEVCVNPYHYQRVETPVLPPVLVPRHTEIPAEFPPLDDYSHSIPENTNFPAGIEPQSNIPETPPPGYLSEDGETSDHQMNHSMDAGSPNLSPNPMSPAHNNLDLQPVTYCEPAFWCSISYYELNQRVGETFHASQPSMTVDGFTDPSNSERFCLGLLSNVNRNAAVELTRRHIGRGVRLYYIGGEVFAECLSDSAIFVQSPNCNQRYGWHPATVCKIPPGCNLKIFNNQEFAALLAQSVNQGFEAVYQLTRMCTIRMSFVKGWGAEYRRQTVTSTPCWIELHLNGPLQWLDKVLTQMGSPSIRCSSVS

[8] = target: T3, Tyrosine-protein phosphatase non-receptor type 22 (Homo sapiens, UniProt Q9Y2R2); assay type: functional;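 also: confirmatory dose-response retest of primary uHTS hits for inhibition of LYP phosphatase, measured by a fluorescence intensity read-out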
T3 sequence (Q9Y2R2 whole entry): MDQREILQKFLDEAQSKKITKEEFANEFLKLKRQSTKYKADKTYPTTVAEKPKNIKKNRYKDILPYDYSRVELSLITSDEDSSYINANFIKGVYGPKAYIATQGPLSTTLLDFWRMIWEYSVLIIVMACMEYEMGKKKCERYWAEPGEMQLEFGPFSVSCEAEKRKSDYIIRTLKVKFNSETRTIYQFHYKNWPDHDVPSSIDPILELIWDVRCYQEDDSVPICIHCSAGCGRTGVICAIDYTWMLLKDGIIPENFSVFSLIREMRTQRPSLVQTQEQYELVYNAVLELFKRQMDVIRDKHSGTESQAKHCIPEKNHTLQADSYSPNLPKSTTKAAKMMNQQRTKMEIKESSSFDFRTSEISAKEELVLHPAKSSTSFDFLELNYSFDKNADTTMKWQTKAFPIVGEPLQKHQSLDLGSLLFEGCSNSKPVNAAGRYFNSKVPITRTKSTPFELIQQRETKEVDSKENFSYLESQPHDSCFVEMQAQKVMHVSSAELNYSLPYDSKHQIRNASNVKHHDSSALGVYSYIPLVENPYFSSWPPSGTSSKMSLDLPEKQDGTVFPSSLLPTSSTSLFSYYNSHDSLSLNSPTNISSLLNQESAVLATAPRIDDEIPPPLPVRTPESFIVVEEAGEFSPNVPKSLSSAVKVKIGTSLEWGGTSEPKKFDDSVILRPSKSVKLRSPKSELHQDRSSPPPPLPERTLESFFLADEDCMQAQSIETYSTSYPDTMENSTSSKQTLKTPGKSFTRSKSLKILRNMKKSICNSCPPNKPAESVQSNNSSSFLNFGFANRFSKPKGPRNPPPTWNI

[9] = target: Lysine-specific demethylase 4A (Homo sapiens, UniProt O75164); assay: JMJD2A histone demethylase inhibitors, dose response, selectivity assay for GASC-1 inhibitor project, biochemical, DELFIA europium, cherry-picked samples (AID 488840)
Lysine-specific demethylase 4A, sequence (O75164 whole entry): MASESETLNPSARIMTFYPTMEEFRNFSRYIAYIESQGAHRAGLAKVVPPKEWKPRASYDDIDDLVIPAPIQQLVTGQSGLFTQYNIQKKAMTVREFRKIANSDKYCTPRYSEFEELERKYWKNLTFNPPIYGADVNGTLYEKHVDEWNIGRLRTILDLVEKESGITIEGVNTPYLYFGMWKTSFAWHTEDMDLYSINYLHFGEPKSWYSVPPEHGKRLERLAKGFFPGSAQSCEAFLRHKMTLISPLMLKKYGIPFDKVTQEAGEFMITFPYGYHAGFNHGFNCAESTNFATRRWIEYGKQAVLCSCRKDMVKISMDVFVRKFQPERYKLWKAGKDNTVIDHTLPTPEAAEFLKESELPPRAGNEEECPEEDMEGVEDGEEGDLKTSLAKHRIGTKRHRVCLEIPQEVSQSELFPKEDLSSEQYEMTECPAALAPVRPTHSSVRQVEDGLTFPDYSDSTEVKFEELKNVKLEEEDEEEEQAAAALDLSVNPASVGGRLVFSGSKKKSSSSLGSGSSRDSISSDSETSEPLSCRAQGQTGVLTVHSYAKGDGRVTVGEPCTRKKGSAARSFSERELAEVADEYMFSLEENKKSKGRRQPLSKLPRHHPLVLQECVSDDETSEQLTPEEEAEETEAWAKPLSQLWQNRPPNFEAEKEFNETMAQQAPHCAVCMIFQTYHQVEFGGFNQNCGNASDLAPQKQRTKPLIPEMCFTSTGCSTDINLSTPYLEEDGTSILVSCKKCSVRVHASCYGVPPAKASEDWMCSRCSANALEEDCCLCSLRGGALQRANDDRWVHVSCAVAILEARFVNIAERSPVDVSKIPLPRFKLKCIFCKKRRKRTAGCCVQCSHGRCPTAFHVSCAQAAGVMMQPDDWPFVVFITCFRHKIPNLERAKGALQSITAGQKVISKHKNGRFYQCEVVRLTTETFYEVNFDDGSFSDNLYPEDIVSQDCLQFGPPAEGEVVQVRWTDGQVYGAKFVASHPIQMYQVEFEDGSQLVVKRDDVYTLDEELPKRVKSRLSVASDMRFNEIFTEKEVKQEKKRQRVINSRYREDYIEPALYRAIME

[10] = target: Dual specificity tyrosine-phosphorylation-regulated kinase 1A (Rattus norvegicus, UniProt Q63470); assay type: biochemical, Homo sapiens

Large T antigen, sequence (P03070 whole entry): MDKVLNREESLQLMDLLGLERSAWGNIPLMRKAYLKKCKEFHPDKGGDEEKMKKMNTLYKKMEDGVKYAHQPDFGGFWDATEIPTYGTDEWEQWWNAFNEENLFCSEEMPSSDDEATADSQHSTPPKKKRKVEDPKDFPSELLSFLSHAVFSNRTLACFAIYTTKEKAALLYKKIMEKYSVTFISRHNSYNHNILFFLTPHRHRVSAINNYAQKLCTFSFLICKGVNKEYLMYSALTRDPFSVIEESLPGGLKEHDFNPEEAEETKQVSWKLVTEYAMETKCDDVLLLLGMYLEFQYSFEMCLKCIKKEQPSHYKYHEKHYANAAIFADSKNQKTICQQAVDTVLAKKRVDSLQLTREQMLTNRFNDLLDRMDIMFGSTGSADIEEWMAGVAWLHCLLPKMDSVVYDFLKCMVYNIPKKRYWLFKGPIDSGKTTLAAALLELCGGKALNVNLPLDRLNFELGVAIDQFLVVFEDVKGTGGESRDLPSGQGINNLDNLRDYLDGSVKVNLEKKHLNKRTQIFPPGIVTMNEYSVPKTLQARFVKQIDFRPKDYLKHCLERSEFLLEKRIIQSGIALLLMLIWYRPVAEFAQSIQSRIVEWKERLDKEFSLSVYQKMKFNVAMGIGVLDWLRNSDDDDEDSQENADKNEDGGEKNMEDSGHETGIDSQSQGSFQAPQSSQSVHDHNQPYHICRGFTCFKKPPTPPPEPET

O=C(CCN1C(=O)/C(=C\c2ccco2)SC1=S)Nc1ccc(C(=O)O)c(O)c1
IC50 [1]: > 100 µM (active)

Oc1nc(Nc2ccccc2Cl)cc2ccccc12
IC50 [2]: 4.7 µM (active)

O=C1C=C(c2c(O)ccc3ccccc23)c2ccccc2C1=O
EC50 [3]: > 92.4 µM (inactive)

Cc1nc2c(=O)n(C)c(=O)nc-2n(C)n1
EC50 [4]: 0.235 µM (active) | EC50 [5]: > 150 µM (not active) | EC50 [6]: 5.69 µM (active) | IC50 [7]: 0.038 µM (active) | IC50 [8]: < 1.24 µM (active) | AC50 [9]: 1.78 µM (active) | AC50 [10]: 0.215 µM (active)
